We go through one compound from patent publication US20250017889A1, “INHIBITORS OF P1B-TYPE ATPASES” (THE CURATORS OF THE UNIVERSITY OF MISSOURI, priority 2021, published 2025).

Common to all, as to assay type: cell-based
For data set [1], the system named is tyrosinase activity in B16 melanoma cells. Kind of data set: Tyrosinase activity in wild type B16 melanoma cells (L-DOPA to DOPAchrome), proxy for ATP7A inhibition. An excerpt:
Tyrosinase is a cuproenzyme involved in melanogenesis that receives copper via ATP7A in the secretory pathway. […] Thus, reductions in tyrosinase activity in wild type B16 cells can be used as a proxy for inhibition of ATP7A. […]

Data set [2] is described as follows: in vitro. Conditions: mouse. Here is the method: To test this hypothesis, a control compound was generated in which the sulfur atom in the thioamide was replaced with oxygen to generate a corresponding amide (MKV3-D1). […] 20C is a graph of the relationship between tyrosinase activity and compound concentration. […] 20D is a graph of the relationship between the survival of 4T1 breast cancer cells and compound concentration in the presence or absence of 10 μM copper.
Initial structural analysis focused on the importance of the sulfur in MKV3. […] It was thought that MKV3 may provide a coordinating Cu(I) ligand as a mechanism of preventing copper movement into the channel domain. To test this hypothesis, a control compound was generated in which the sulfur atom in the thioamide was replaced with oxygen to generate a corresponding amide (MKV3-D1). […] Using another assay of ATP7A inhibition, the ability of MKV3-D1 to sensitize 4T1 breast cancer cells to copper was tested.

The subject of data set [3] is Cu^S cells complemented with ATP7A. Kind of data set: Copper toxicity in Cu^S cells complemented with ATP7A. The settings on record: 10 μM, 50% cytotoxic copper concentration. The text has this: (§1) 8A illustrates a copper sensitive fibroblast cell line (Cu^S) generated by deleting genes encoding ATP7A, metallothionein-I (MT-I) and metallothionein-II (MT-II). Cu^S cells cannot be propagated in regular medium (DMEM) unless a copper chelator (BCS) is supplied to the medium.
(§2) Cu^S cell lines were derived that were complemented by either ATP7A, ATP7B or MT-II.

For data set [4], the system named is Cu^S cells complemented with ATP7B. Description: Copper toxicity in Cu^S cells complemented with ATP7B. Conditions: 10 μM, 50% cytotoxic copper concentration.
Excerpt: as §1, §2

Data set [5] has as its target T1, human ATP7A (hATP7A) (Homo sapiens, UniProt Q04656).
T1 construct: expressed in transfected cells; host or cells: B16 melanoma ATP7A^KO cells (mouse), transient transfection
T1 sequence (Q04656 1-1500): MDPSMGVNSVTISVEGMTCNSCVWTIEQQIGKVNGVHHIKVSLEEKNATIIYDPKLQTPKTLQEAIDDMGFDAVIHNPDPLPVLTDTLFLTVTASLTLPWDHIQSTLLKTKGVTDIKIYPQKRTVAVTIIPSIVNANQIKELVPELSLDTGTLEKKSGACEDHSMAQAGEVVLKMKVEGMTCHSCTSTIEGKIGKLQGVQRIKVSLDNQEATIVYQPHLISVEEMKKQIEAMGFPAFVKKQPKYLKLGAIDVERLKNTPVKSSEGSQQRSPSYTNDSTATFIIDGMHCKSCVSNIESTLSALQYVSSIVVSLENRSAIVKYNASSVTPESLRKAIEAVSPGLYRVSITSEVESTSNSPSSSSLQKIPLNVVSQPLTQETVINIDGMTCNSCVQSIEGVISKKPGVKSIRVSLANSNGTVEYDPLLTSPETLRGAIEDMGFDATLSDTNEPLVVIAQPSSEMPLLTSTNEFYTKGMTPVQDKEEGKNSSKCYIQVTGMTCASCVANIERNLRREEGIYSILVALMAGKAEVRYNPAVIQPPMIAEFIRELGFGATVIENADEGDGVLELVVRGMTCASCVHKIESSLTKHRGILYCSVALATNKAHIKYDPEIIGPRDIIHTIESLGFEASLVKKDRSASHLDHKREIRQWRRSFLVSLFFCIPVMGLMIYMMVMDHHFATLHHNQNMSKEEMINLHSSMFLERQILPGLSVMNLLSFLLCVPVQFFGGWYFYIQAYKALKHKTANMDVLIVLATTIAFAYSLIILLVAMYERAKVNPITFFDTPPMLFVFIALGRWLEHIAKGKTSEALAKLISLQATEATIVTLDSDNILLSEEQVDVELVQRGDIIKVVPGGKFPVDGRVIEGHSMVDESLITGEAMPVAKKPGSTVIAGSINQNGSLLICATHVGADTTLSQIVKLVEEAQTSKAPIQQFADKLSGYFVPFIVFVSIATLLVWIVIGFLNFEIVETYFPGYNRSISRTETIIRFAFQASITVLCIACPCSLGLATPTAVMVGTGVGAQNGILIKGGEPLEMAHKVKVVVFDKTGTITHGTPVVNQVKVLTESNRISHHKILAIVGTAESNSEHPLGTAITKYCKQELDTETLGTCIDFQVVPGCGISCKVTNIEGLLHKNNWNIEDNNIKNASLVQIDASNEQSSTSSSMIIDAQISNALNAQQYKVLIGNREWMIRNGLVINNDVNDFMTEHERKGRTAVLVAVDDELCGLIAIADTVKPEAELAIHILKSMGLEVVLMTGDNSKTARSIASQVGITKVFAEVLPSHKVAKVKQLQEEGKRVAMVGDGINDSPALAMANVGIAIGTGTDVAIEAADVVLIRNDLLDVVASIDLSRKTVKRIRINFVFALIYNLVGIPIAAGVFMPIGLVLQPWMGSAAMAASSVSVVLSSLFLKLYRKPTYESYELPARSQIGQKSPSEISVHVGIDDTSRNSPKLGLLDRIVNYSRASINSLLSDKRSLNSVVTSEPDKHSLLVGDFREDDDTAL
Kind of data set: Tyrosinase activation in B16 ATP7A^KO cells transfected with human ATP7A. The settings on record: 10 μM, 24 h, ATP7A^KO melanoma cells. An excerpt:
Prior studies have shown that exogenously expressed ATP7B can activate tyrosinase in cells lacking ATP7A. For these studies, a B16 melanoma cell model was used in which tyrosinase activity can be detected by in situ oxidation of L-DOPA to DOPAchrome (10A). As shown earlier, B16 cells deleted for the ATP7A gene (ATP7A^KO) completely lack tyrosinase activity (10B). […] Quantification of tyrosinase activity in these cells is shown (10G). Data represent mean±SEM; ****p<0.0001 of three independent replicates.

Data set [6] deals with 4T1 cells. Kind of data set: Sensitivity of 4T1 cells to metal ions, crystal violet assay. Here is the method:
All metals were added as chloride salts except silver, which was added as silver nitrate (AgNO3).

Consider `N#CC(C(=O)Nc1cccc(C(F)(F)F)c1)C(=S)Nc1ccccc1Cl` (centres unmarked) [MKV3], for which, in data set [1] (5 μM, 24 h, wild type B16 melanoma cells), the “in situ tyrosinase activity” value is recorded as “loss of tyrosinase activity”. Further, the IC50 in data set [1] (Mus musculus, B16 cells) amounted to 2.96 ± 0.007 µM. Further, in data set [2], the half-maximal cytotoxic concentration (CC50) stood at 63.1 µM. Moreover, the copper toxicity result in data set [3] and in data set [4] was “enhanced copper toxicity” in each case. Also, in data set [5], the “activation of tyrosinase activity by ATP7A” value is recorded as “prevented activation of tyrosinase activity”. The “sensitivity to copper and silver” value in data set [6] (10 μM MKV3, 4T1 cells) was “conferred sensitivity to as little as 5 μM copper and silver”. In data set [6] (10 μM MKV3, other metals up to 50 μM), the “sensitivity to other metals” value is on record as “did not affect the sensitivity”.
